Results on one molecule are retold here after patent US11957668B2, “Kinase mutation-associated neurodegenerative disorders” (MEMORIAL SLOAN KETTERING CANCER CENTER, priority 2017, dated 2024).

The test system of test [1] is Csf1r^MeriCreMer; BRAF^V600E; Rosa26^LSL-YFP mice.
Method: Mice. […] Genotyping was performed according to protocols described previously for Csf1r^iCre Csf1r^MeriCreMer, CD11^Cre and BRAF^LSL-V600E mice. Cre recombination in Csf1r^MeriCreMer; Rosa26^LSL-YFP; BRAF^LSL-V600E embryos was induced by single injection at E8.5 of 37.5 mg per kg (body weight) of 4-hydroxytamoxifen (OH-TAM, Sigma) into pregnant females. OH-TAM was supplemented with 18.75 mg per kg (body weight) progesterone (Sigma) to counteract the mixed oestrogen agonist effects of tamoxifen, which can result in fetal abortions. Embryonic development was estimated considering the day of vaginal plug formation as 0.5 dpc. […] BRAF^WT and BRAF^VE male and female littermates were assigned randomly into the control or treated group. Scoring of mice was performed blinded and at least weekly by assessing hindlimb reflexes and other behavioral phenotypes such as axial rolling. The investigators were not blinded to allocation during experiments and outcome assessment.
Footprint analysis. Mice were given two trials to run down a runway before the experiment. Mouse forepaws and hindpaws were painted with red and blue ink, respectively. Mice were then allowed to run down a runway lined with white paper. At least four steps from the middle portion of each run were measured for (1) overlap between forepaw and hindpaw placement, (2) stride length, (3) front-base width (the distance between the right and left forelimb strides), and (4) hind-base width (the distance between the right and left hindlimb strides). Mean values were used for graphs and statistical analyses.
As a readout, hind limb clasping reflexes were examined every week and footprint assays were performed as described above before treatment and every 4 weeks during treatment.
To determine the potential effects of BRAF^V600E macrophage clones in adult tissues, a large cohort (n=155) of BRAF^VE mice and littermate controls were analyzed.
Test [2] relates to YFP+ microglia. Nature of the test: Protein-level expression of inflammatory and adhesion markers in YFP+ microglia and spinal cord (flow cytometry, immunostaining, Bioplex). In kind it is in vivo, mouse. The note with it: BRAF^VE mice, following PLX4720 treatment.
Method: Preparation of cell suspensions, flow cytometry and cell sorting. Pregnant females were killed by exposure to CO2. Embryos were removed from the uterus, washed in 4° C. phosphate-buffered saline (PBS, Invitrogen) and dissected under a Leica M80 microscope. For blood phenotyping of adult mice, mice were anaesthetized and blood was collected by cardiac puncture. Bone marrow was collected by flushing one leg with 5 ml RPMI (Invitrogen). For flow cytometry experiments, organs were incubated in PBS containing 1 mg/ml collagenase D (Roche), 100 U/ml DNase I (Sigma), 2.4 mg/ml of dispase (Invitrogen) and 3% FCS (Invitrogen) at 37° C. for 30 min prior to mechanical disruption. For embryonic tissue incubation time at 37° C. was reduced to 20 min. For cell sorting, tissues were digested for 30 min at RT in PBS containing 2 mg/ml of collagenase D (Roche), 200 U/ml DNase I (Sigma), 4.8 mg/ml of dispase (Invitrogen), 3% FCS (Invitrogen) and 1 uM of flavopiridol (Sigma) followed by mechanical disruption under a 100 um filter. Cell suspensions were centrifuged at 320 g for 7 min, resuspended in FACS buffer (PBS, 0.5% BSA and 2 mm EDTA) containing purified anti-CD16/32 (1:100 dilution) and 5% normal mouse, 5% normal rat and 5% normal rabbit serum and incubated for 15 min at 4° C. […] For FMO (fluorescence minus one), brain cell suspensions from BRAF^WT and BRAF^VE mice were mixed prior to staining. […]

Structures are written as SMILES.

On to `CCCS(=O)(=O)Nc1ccc(F)c(C(=O)c2c[nH]c3ncc(Cl)cc23)c1F` [PLX4720], for which the “onset of neurologic disease (cumulative incidence of the ataxic phenotype)” value in test [1] (PLX4720-impregnated chow 417 mg/kg from 3 months of age, preliminary, small group) is “delays but does not totally prevent the onset of neurologic disease”. For the same molecule, the disease progression result in test [1] (ad libitum PLX4720 diet started at one or three months of age) is recorded as “mitigated disease progression in both cases”. Also, the “BRAF^VE mice alive” value in test [1] (by 9 months of age, PLX4720 diet) is 80%. Moreover, the average clinical score in test [1] (by 9 months of age, PLX4720 diet, score scale 1-4) was found to be 2. Also, the “course of the neurological disease and mortality” value in test [1] (treatment of adult mice with BRAF^V600E mosaicism) was “slows the course of the neurological disease and reduces its mortality”. For the same molecule, the “expression of Dectin-1 (Clec7a), LFA-1 (CD11a), VLA-4 (CD49d), the Pdgf receptor, Il1b, and Il17a at the protein level” value in test [2] is given as “decrease”.
